#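 All cell lines were grown in 96-well plates and treated with compound for 48 hours. At the TGI there is no net growth.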
# System: DU-145 prostate
# Assay: DTP human tumour cell line panel, 48 h
row,Structure (SMILES),TGI
1,NC(=O)C(N)Cc1ccc(O)cn1 (configuration not stated),> 100 µM
2,CC[N+](CC)(CCNCC(N)=O)CC(N)=O,> 10 µM
3,COc1ccc(N=C2SC(=N/N=c3\sc4ccccc4n3C)SC2=Nc2ccc(OC)cc2)cc1,> 100 µM
4,Cc1ccc(/C=N/n2c(=O)[nH]c3ccccc3c2=O)cc1,> 100 µM
5,S=C(c1c[nH]c2ccccc12)N1CCOCC1,> 100 µM
6,COc1ccc(C2CC(=O)CC(c3ccc(OC)cc3)C23C(=O)NC(=O)NC3=O)cc1 (configuration not stated),> 100 µM
7,COC(C)(C)C1=CCC(C)CC1 (configuration not stated),> 100 µM
8,c1ccc2sc(C3(N4CCCC4)CCCCCC3)cc2c1,> 100 µM

# System: A498 renal
# Assay: DTP human tumour cell line panel, 48 h
row,Structure (SMILES),TGI
1,CC(C)(Cc1ccccc1)NC1=NCCO1,> 100 µM
2,O=C(c1ccc(O)cc1)C1c2c3c(cc(O)c2C(c2ccc(O)cc2)C1c1cc(O)cc(O)c1)OC(c1ccc(O)cc1)C3c1cc2c(cc1O)OC(c1ccc(O)cc1)C2c1cc(O)cc(O)c1 (configuration not stated),> 12.5 µM
3,Cc1cc2nc3c(C#N)c(-c4ccccc4)cc(Nc4ccc(Cl)cc4)n3c2cc1C,> 100 µM
4,CC(=O)n1nc(-c2ccccc2)n(/N=C/c2ccc([N+](=O)[O-])cc2)c1=O,> 100 µM
5,COc1cc(C[S+]2CCCC2)c(SC)cc1C[S+]1CCCC1,> 100 µM
6,C[C@]12C=CC(=O)C=C1CC[C@H]1[C@@H]3C[C@@H](O)[C@](O)(C(=O)CO)[C@@]3(C)C[C@H](O)[C@@]12F,> 100 µM
7,O=S(=O)(c1ccccc1)n1c2cc3cccnc3nc2c2cccnc21,> 100 µM
8,COc1cc(/C=C2\CCC(C)C3C2=NN(C(C)=O)C3c2cc(OC)c(OC)c(OC)c2)cc(OC)c1OC (configuration not stated),> 100 µM
9,CC(=O)NC1C(OCc2ccccc2)OC(CO)C(O)C1OC(C)C(=O)NC(C)C(=O)NC(CCC(=O)NCCCNc1c2ccccc2nc2cccc([N+](=O)[O-])c12)C(N)=O (configuration not stated),6.11 µM
10,NC(=O)C(N)Cc1ccc(O)cn1 (configuration not stated),> 100 µM
11,CC[N+](CC)(CCNCC(N)=O)CC(N)=O,> 10 µM
12,Cc1ccc(/C=N/n2c(=O)[nH]c3ccccc3c2=O)cc1,> 100 µM
13,S=C(c1c[nH]c2ccccc12)N1CCOCC1,> 100 µM
14,COC(C)(C)C1=CCC(C)CC1 (configuration not stated),> 100 µM
15,c1ccc2sc(C3(N4CCCC4)CCCCCC3)cc2c1,32.5 µM

# System: SW-620 colon
# Assay: DTP human tumour cell line panel, 48 h
row,Structure (SMILES),TGI
1,CC1CC(N)=Nc2ccccc2N1 (configuration not stated),> 100 µM
2,S=C(NCc1ccccc1)c1nc[nH]c1C(=S)NCc1ccccc1,20.8 µM
3,CC(C)(Cc1ccccc1)NC1=NCCO1,> 100 µM
4,CN(c1ccc(Cl)cc1)S(=O)(=O)c1cccc([N+](=O)[O-])c1,> 100 µM
5,O=C(c1ccc(O)cc1)C1c2c3c(cc(O)c2C(c2ccc(O)cc2)C1c1cc(O)cc(O)c1)OC(c1ccc(O)cc1)C3c1cc2c(cc1O)OC(c1ccc(O)cc1)C2c1cc(O)cc(O)c1 (configuration not stated),> 12.5 µM
6,Cc1cc2nc3c(C#N)c(-c4ccccc4)cc(Nc4ccc(Cl)cc4)n3c2cc1C,> 100 µM
7,CN(c1ccc(Cl)cc1)S(=O)(=O)c1ccc([N+](=O)[O-])cc1,> 100 µM
8,O=S1(=O)OCCOS(=O)(=O)C1F,> 100 µM
9,CC(=O)n1nc(-c2ccccc2)n(/N=C/c2ccc([N+](=O)[O-])cc2)c1=O,> 100 µM
10,COc1cc(C[S+]2CCCC2)c(SC)cc1C[S+]1CCCC1,> 100 µM
11,CCn1c(-c2cc(OC)cc(OC)c2)nc2c1C(=O)c1ccccc1C2=O,> 100 µM
12,COc1cc(-c2cc(=O)c3c(OC)c(OC)c(OC)c(OC)c3o2)c(OC)c(OC)c1OC,> 100 µM
13,C[C@]12C=CC(=O)C=C1CC[C@H]1[C@@H]3C[C@@H](O)[C@](O)(C(=O)CO)[C@@]3(C)C[C@H](O)[C@@]12F,> 100 µM
14,O=S(=O)(c1ccccc1)n1c2cc3cccnc3nc2c2cccnc21,> 100 µM
15,COc1cc(/C=C2\CCC(C)C3C2=NN(C(C)=O)C3c2cc(OC)c(OC)c(OC)c2)cc(OC)c1OC (configuration not stated),> 100 µM
16,Cc1cc(N(CCC#N)CCC#N)ccc1/C(N=Nc1ccc([N+](=O)[O-])cc1)=N\NC(=O)c1cc(Cl)ccc1C(=O)c1ccccc1,82.2 µM
17,CC(=O)NC1C(OCc2ccccc2)OC(CO)C(O)C1OC(C)C(=O)NC(C)C(=O)NC(CCC(=O)NCCCNc1c2ccccc2nc2cccc([N+](=O)[O-])c12)C(N)=O (configuration not stated),11.6 µM
18,NC(=O)C(N)Cc1ccc(O)cn1 (configuration not stated),> 100 µM
19,CC[N+](CC)(CCNCC(N)=O)CC(N)=O,> 10 µM
20,COc1ccc(N=C2SC(=N/N=c3\sc4ccccc4n3C)SC2=Nc2ccc(OC)cc2)cc1,> 100 µM
21,Cc1ccc(/C=N/n2c(=O)[nH]c3ccccc3c2=O)cc1,> 100 µM
22,S=C(c1c[nH]c2ccccc12)N1CCOCC1,> 100 µM
23,COc1ccc(C2CC(=O)CC(c3ccc(OC)cc3)C23C(=O)NC(=O)NC3=O)cc1 (configuration not stated),50.2 µM
24,COC(C)(C)C1=CCC(C)CC1 (configuration not stated),> 100 µM
25,c1ccc2sc(C3(N4CCCC4)CCCCCC3)cc2c1,34.4 µM

# System: K-562 leukemia
# Assay: DTP human tumour cell line panel, 48 h
row,Structure (SMILES),TGI
1,CC1CC(N)=Nc2ccccc2N1 (configuration not stated),> 100 µM
2,S=C(NCc1ccccc1)c1nc[nH]c1C(=S)NCc1ccccc1,29.7 µM
3,CC(C)(Cc1ccccc1)NC1=NCCO1,> 100 µM
4,CN(c1ccc(Cl)cc1)S(=O)(=O)c1cccc([N+](=O)[O-])c1,> 100 µM
5,O=C(c1ccc(O)cc1)C1c2c3c(cc(O)c2C(c2ccc(O)cc2)C1c1cc(O)cc(O)c1)OC(c1ccc(O)cc1)C3c1cc2c(cc1O)OC(c1ccc(O)cc1)C2c1cc(O)cc(O)c1 (configuration not stated),> 12.5 µM
6,CN(c1ccc(Cl)cc1)S(=O)(=O)c1ccc([N+](=O)[O-])cc1,> 100 µM
7,O=C1OC[C@@H]2Cc3cc4c(cc3[C@H](c3ccc5c(c3)OCO5)[C@@H]12)OCO4,> 25 µM
8,O=S1(=O)OCCOS(=O)(=O)C1F,> 100 µM
9,CC(=O)n1nc(-c2ccccc2)n(/N=C/c2ccc([N+](=O)[O-])cc2)c1=O,> 100 µM
